Data from ChEMBL document CHEMBL4308846, “How Selective Are Pharmacological Inhibitors of Cell-Cycle-Regulating Cyclin-Dependent Kinases?” (J Med Chem, 2018).
Calls of active or inactive are those of the source. The calls are words filed in the database; no cut-off is given here.

Experiments:
HCT-116 [1] = assay: Induction of cell cycle arrest in human HCT116 cells assessed as accumulation at G2/M phase at 19.8 to 100 uM after 24 hrs by propidium iodide-staining based flow cytometry relative to control; format: functional
[2] = target: Cyclin-dependent kinase 1/cyclin B1 (Homo sapiens, UniProt P06493); assay: biochemical
Sequence of Cyclin-dependent kinase 1/cyclin B1 (P06493 whole entry): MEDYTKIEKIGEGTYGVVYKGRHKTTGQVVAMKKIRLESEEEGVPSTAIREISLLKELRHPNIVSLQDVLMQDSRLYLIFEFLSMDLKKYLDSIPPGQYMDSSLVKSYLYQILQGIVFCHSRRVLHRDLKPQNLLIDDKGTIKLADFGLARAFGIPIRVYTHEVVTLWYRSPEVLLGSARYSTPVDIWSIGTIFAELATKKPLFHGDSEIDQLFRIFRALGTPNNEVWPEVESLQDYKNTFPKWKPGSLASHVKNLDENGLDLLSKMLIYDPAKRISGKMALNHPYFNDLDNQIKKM
Sequence of Cyclin-dependent kinase 1/cyclin B1 (P14635 whole entry, further chain): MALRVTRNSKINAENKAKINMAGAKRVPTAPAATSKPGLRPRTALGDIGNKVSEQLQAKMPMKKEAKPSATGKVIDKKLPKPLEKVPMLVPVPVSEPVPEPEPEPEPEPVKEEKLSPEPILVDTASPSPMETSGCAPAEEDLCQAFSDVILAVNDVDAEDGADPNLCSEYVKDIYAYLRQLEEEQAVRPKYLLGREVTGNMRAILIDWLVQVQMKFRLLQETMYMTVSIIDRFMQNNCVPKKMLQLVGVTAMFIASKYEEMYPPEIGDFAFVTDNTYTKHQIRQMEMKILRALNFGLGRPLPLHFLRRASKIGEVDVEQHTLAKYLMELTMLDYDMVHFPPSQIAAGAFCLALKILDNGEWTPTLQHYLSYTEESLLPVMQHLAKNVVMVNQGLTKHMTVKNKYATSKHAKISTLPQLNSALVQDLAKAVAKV

[3] = target: Cyclin-dependent kinase 4/cyclin D1 (Homo sapiens, UniProt P11802); assay: biochemical
Sequence of Cyclin-dependent kinase 4/cyclin D1 (P11802 whole entry): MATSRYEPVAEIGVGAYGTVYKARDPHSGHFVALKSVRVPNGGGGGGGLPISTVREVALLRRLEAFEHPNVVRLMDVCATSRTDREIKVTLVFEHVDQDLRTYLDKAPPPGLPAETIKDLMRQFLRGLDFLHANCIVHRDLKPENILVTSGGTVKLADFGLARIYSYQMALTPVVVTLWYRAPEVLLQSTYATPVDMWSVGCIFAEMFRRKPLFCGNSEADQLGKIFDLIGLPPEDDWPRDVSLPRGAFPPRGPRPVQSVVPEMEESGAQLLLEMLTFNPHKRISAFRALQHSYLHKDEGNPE
Sequence of Cyclin-dependent kinase 4/cyclin D1 (P24385 whole entry, further chain): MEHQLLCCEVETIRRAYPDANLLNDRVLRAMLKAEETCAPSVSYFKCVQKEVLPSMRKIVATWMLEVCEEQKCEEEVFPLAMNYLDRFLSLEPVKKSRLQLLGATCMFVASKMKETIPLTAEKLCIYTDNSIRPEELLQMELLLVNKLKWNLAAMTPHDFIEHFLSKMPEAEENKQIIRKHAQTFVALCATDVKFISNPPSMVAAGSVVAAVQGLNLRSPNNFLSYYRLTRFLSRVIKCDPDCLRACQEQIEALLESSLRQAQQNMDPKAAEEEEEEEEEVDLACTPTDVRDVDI

CDK2/Cyclin A2 = CDK2/Cyclin A2 (Homo sapiens, UniProt P24941)
[4] = target: Cyclin-dependent kinase 5/CDK5 activator 1 (Homo sapiens, UniProt Q00535); assay: biochemical
Sequence of Cyclin-dependent kinase 5/CDK5 activator 1 (Q00535 whole entry): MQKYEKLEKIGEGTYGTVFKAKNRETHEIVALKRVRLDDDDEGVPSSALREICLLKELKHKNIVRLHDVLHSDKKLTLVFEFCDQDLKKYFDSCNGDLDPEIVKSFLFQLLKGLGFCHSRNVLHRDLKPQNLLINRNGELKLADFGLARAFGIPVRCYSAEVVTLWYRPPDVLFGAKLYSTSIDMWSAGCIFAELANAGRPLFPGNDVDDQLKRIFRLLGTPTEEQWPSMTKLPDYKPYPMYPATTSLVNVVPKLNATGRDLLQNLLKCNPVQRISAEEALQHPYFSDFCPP
Sequence of Cyclin-dependent kinase 5/CDK5 activator 1 (Q15078 whole entry, further chain): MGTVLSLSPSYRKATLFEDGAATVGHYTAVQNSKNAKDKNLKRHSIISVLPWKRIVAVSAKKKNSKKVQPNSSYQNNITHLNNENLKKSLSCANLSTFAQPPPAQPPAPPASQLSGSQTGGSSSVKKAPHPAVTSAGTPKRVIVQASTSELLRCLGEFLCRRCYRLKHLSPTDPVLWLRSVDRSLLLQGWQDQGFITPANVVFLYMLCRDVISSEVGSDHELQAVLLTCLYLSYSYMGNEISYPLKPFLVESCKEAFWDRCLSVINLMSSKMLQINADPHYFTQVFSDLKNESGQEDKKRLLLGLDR

[5] = target: Cyclin-dependent kinase 2/cyclin E1 (Homo sapiens, UniProt P24941); assay: biochemical
CDK9/cyclin T1 = CDK9/cyclin T1 (Homo sapiens, UniProt P50750); assay: biochemical
Sequence of CDK9/cyclin T1 (O60563 whole entry): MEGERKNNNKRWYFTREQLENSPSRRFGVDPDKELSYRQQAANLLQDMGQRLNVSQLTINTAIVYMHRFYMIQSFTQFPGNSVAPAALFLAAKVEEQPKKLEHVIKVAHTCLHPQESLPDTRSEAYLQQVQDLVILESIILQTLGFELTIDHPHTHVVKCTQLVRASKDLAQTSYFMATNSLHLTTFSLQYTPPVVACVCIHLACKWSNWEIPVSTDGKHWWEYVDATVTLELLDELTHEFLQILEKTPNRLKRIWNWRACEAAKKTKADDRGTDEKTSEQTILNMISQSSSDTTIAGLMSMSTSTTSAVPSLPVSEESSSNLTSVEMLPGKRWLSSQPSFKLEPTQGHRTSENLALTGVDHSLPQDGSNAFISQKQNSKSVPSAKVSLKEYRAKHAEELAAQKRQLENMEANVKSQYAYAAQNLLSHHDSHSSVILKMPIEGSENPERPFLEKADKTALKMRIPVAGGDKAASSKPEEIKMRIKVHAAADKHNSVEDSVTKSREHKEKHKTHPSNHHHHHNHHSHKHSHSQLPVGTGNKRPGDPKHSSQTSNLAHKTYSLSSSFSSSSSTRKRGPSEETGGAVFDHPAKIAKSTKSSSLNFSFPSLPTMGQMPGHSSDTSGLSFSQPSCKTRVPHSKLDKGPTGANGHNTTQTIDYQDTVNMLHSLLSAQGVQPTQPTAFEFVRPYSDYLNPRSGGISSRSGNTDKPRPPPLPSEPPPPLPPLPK
Sequence of CDK9/cyclin T1 (P50750 whole entry): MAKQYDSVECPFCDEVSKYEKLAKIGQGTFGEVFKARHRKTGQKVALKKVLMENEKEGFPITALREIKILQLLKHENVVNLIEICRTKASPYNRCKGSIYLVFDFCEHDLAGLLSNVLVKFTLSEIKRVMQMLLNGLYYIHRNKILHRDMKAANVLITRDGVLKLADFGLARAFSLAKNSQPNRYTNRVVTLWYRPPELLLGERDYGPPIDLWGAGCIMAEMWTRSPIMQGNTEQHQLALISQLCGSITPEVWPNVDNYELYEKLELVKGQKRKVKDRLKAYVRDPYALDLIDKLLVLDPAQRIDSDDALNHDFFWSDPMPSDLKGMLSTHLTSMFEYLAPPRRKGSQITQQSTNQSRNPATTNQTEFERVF

CDK7/Cyclin H/MNAT1 = CDK7/Cyclin H/MNAT1 (Homo sapiens, UniProt P50613); assay: biochemical
Sequence of CDK7/Cyclin H/MNAT1 (P51946 whole entry): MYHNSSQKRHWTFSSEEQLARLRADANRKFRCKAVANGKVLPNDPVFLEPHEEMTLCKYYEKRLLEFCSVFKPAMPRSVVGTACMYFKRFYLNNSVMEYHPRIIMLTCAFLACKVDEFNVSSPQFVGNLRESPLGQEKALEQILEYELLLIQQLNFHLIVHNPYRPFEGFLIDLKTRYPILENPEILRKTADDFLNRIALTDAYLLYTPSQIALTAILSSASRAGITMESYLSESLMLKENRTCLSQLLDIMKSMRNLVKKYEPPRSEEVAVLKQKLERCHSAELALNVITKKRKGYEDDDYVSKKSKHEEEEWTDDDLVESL
Sequence of CDK7/Cyclin H/MNAT1 (P50613 whole entry): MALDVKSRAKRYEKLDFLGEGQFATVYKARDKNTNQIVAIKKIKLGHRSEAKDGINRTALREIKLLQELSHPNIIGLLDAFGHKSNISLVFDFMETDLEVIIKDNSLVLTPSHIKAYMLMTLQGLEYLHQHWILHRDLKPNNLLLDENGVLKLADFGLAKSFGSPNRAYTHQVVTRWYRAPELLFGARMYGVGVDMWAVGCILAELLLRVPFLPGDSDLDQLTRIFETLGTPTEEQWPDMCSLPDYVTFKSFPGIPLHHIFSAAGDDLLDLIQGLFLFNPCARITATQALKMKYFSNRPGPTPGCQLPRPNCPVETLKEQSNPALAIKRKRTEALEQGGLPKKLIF
Sequence of CDK7/Cyclin H/MNAT1 (P51948 whole entry, further chain): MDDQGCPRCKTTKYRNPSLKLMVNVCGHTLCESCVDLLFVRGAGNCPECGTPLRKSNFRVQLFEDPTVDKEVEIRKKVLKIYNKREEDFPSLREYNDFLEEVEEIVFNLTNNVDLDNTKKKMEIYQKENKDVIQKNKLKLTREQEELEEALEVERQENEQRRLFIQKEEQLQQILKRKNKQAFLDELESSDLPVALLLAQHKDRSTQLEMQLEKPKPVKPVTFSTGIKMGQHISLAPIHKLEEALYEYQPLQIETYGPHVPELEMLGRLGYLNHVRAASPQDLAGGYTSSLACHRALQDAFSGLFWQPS

HCT-116 [6] = assay: Induction of cell cycle arrest in human HCT116 cells assessed as accumulation at G2/M phase after 24 hrs by propidium iodide-staining based flow cytometry; format: functional
HCT-116 [7] = assay: Induction of cell cycle arrest in CDK2 knocked out human HCT116 cells assessed as accumulation at G2/M phase at 100 to 500 nM after 24 hrs by propidium iodide-staining based flow cytometry; format: functional
[8] = target: T1, Cyclin-dependent kinase 5/CDK5 activator 1 (Homo sapiens) (UniProt Q00535+Q15078); assay: Inhibition of CDK5/p25 in human HCT116 cells assessed as induction of dephosphorylation of FAK at Ser732 residue at 10 to 50 uM after 24 hrs by Western blot analysis; format: cell-based
T1 sequence (Q00535 whole entry): as the sequence (Q00535 whole entry) above
T1 sequence (Q15078 99-307 partner limits assumed): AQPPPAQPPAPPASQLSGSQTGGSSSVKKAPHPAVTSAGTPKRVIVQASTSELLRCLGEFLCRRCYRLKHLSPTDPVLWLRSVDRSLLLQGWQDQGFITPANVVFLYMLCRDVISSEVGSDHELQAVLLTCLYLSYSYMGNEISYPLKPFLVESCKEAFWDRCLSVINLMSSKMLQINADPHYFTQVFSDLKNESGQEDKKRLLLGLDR

HCT-116 [9] = assay: Induction of cell cycle arrest in CDK2 knocked out human HCT116 cells assessed as accumulation at G2/M phase at 0.5 to 3.9 after 24 hrs by propidium iodide-staining based flow cytometry; format: functional
HCT-116 [10] = assay: Induction of cell cycle arrest in CDK2 knocked out human HCT116 cells assessed as accumulation at G2/M phase at 13.2 to […] after 24 hrs by propidium iodide-staining based flow cytometry; format: functional
HCT-116 [11] = assay: Induction of cell cycle arrest in human HCT116 cells assessed as reduction in accumulation at G1 phase at 8.8 to 100 uM after 24 hrs by propidium iodide-staining based flow cytometry; format: functional; design: scale not given: the % may be the effect or the level left
HCT-116 [12] = assay: Induction of cell cycle arrest in CDK2 knocked out human HCT116 cells assessed as accumulation at G2/M phase at 0.8 to 5.9 after 24 hrs by propidium iodide-staining based flow cytometry; format: functional
HCT-116 [13] = assay: Induction of cell cycle arrest in human HCT116 cells at 19.8 to 100 uM after 24 hrs by propidium iodide-staining based flow cytometry relative to control; format: functional
HCT-116 [14] = assay: Induction of cell cycle arrest in human HCT116 cells assessed as accumulation at G2/M phase at 0.05 to 0.5 uM after 24 hrs by propidium iodide-staining based flow cytometry relative to control; format: functional
[15] = target: Cyclin-dependent kinase 9 (Homo sapiens) (UniProt P50750); assay: Inhibition of CDK9 in human HCT116 cells assessed as induction of dephosphorylation of RNA polymerase 2 S2/S5 residues at 250 to 500 nM after 24 hrs by Western blot analysis; format: cell-based
Sequence of Cyclin-dependent kinase 9 (Homo sapiens) (P50750 whole entry): as the sequence (P50750 whole entry) above

[16] = target: T1, Cyclin-dependent kinase 5/CDK5 activator 1 (Homo sapiens); assay: Inhibition of CDK5/p25 in human HCT116 cells assessed as induction of dephosphorylation of FAK at Ser732 residue at 250 to 500 nM after 24 hrs by Western blot analysis; format: cell-based
[17] = target: Cyclin-dependent kinase 7 (Homo sapiens) (UniProt P50613); assay: Inhibition of CDK7 in human HCT116 cells assessed as induction of dephosphorylation of RNA polymerase 2 S2/S5 residues at 250 to 500 nM after 24 hrs by Western blot analysis; format: cell-based
HCT-116 [18] = assay: Induction of cell cycle arrest in human HCT116 cells assessed as reduction in accumulation at G1 phase at 0.15 to […] after 24 hrs by propidium iodide-staining based flow cytometry; format: functional
HCT-116 [19] = assay: Induction of cell cycle arrest in human HCT116 cells assessed as accumulation at G2/M phase at 0.15 to […] after 24 hrs by propidium iodide-staining based flow cytometry relative to control; format: functional
HCT-116 [20] = assay: Induction of cell cycle arrest in human HCT116 cells assessed as accumulation at G2/M phase at 2.6 to 19.8 uM after 24 hrs by propidium iodide-staining based flow cytometry relative to control; format: functional
Aurora kinase B = Aurora kinase B (Homo sapiens, UniProt Q96GD4); assay: biochemical
Aurora kinase A = target: T2, Aurora kinase A (Homo sapiens, UniProt O14965); assay: Inhibition of GST-tagged AURORA A (unknown origin) expressed in baculovirus infected Sf9 cells using MBP as substrate
T2 sequence (O14965 whole entry): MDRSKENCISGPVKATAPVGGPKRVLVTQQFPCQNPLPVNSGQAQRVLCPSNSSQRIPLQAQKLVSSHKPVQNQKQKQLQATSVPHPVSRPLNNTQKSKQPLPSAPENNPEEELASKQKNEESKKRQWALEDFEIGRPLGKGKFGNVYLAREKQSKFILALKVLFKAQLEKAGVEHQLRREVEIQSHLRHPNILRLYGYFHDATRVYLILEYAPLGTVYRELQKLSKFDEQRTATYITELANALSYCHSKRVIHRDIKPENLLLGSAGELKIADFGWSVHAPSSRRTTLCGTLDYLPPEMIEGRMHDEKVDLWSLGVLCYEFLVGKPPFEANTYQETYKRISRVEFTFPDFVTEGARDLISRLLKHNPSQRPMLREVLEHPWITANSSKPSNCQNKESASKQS

HCT-116 [21] = assay: Induction of cell cycle arrest in human HCT116 cells assessed as accumulation at G2/M phase at 3.9 to 19.8 uM after 24 hrs by propidium iodide-staining based flow cytometry relative to control; format: functional
HCT-116 [22] = assay: Induction of cell cycle arrest in human HCT116 cells assessed as accumulation at G2/M phase at 1.7 to 19.8 uM after 24 hrs by propidium iodide-staining based flow cytometry; format: functional
[23] = target: Cyclin-dependent kinase 6 (Homo sapiens) (UniProt Q00534); assay: Inhibition of CDK6 (unknown origin) at 10 uM
Sequence of Cyclin-dependent kinase 6 (Homo sapiens) (Q00534 whole entry): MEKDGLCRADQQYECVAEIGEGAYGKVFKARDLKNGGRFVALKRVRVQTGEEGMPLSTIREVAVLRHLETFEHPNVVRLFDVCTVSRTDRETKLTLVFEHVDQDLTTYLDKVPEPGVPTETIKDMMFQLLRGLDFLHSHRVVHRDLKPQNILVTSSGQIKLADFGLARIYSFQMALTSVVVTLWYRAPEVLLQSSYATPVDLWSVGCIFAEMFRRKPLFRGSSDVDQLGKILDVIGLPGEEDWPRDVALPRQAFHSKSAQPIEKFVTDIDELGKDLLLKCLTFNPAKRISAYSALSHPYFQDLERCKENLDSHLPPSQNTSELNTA

HCT-116 [24] = assay: Induction of cell cycle arrest in human HCT116 cells assessed as reduction in accumulation at G1 phase at 0.5 to 5.9 uM after 24 hrs by propidium iodide-staining based flow cytometry; format: functional; design: scale not given: the % may be the effect or the level left
[25] = target: Cyclin-dependent kinase 4 (Homo sapiens) (UniProt P11802); assay: Inhibition of CDK4 (unknown origin) at 10 uM
HCT-116 [26] = assay: Induction of cell cycle arrest in human HCT116 cells assessed as accumulation at G2/M phase at 5 to 20 uM after 24 hrs by propidium iodide-staining based flow cytometry; format: functional
HCT-116 [27] = assay: Induction of cell cycle arrest in CDK2 knocked out human HCT116 cells assessed as accumulation at G2/M phase at 5 to 20 uM after 24 hrs by propidium iodide-staining based flow cytometry; format: functional
HCT-116 [28] = assay: Induction of cell cycle arrest in human HCT116 cells assessed as reduction in accumulation at G1 phase 19.8 to 100 uM after 24 hrs by propidium iodide-staining based flow cytometry; format: functional
HCT-116 [29] = assay: Induction of cell cycle arrest in human HCT116 cells assessed as reduction in accumulation at G1 phase 2.6 to 29.6 uM after 24 hrs by propidium iodide-staining based flow cytometry; format: functional
HCT-116 [30] = assay: Induction of cell cycle arrest in human HCT116 cells assessed as accumulation at G2/M phase 2.6 to 29.6 uM after 24 hrs by propidium iodide-staining based flow cytometry relative to control; format: functional
HCT-116 [31] = assay: Induction of cell cycle arrest in human HCT116 cells assessed as accumulation at G2/M phase 1.25 to 20 uM after 24 hrs by propidium iodide-staining based flow cytometry relative to control; format: functional
HCT-116 [32] = assay: Induction of cell cycle arrest in human HCT116 cells assessed as reduction in accumulation at G1 phase 1.25 to 20 uM after 24 hrs by propidium iodide-staining based flow cytometry; format: functional
HCT-116 [33] = assay: Induction of cell cycle arrest in human HCT116 cells assessed as reduction in accumulation at G1 phase at 1.7 to 19.8 uM after 24 hrs by propidium iodide-staining based flow cytometry; format: functional

SMILES | IC50 [2] [µM] | IC50 [3] [µM] | IC50 (CDK2/Cyclin A2) [µM] | IC50 [4] [µM] | IC50 [5] [µM] | IC50 (CDK9/cyclin T1) [µM] | IC50 (CDK7/Cyclin H/MNAT1) [µM] | other results
CCOC(=O)c1cnc2oc3ccc(O)cc3c2c1-c1ccccc1 | > 20 | > 20 | 7.1 | > 20 | 14.3 | > 20 | > 20 | Activity (HCT-116 [1]): inactive
O=C1Nc2ccc3ncsc3c2/C1=C/Nc1ccc(S(=O)(=O)Nc2ccccn2)cc1 | 0.049 | 0.139 | – | 0.007 | – | – | 0.317 | Activity (HCT-116 [6]): 30 - 60%
CC(C)c1cnc(NC(=O)Cc2ccccc2)s1 | 1.7 | 20.4 | 0.353 | 0.458 | 0.195 | 3.4 | 0.637 | Activity (HCT-116 [7]): Active; inhibition [8]: Active; Activity (HCT-116 [9]): Active; Activity (HCT-116 [10]): Active; Activity (HCT-116 [11]): <=30%; Activity (HCT-116 [12]): Active
Nc1n[nH]c2nc3ccccc3nc12 [QUINOXALINE1] | 9.7 | > 20 | 0.01 | 13.7 | 5.6 | 14.1 | > 20 | Activity (HCT-116 [13]): inactive
Nc1nc(Nc2ccc(S(N)(=O)=O)cc2)nn1C(=S)Nc1c(F)cccc1F | 0.002 | 0.059 | – | 0.0002 | – | 0.03 | 0.066 | Activity (HCT-116 [7]): Active; Activity (HCT-116 [14]): >=60%; inhibition [15]: inactive; inhibition [16]: Active; inhibition [17]: inactive
CN1CCN(c2ccc(Nc3ncc4cc(C#N)c(=O)n(C5CCCC5)c4n3)cc2)CC1 [NARAZACICLIB] | 0.6 | 0.018 | 0.055 | 0.272 | 0.377 | 0.117 | 6 | Activity (HCT-116 [18]): Active; Activity (HCT-116 [19]): >=60%
O=C1Nc2ccccc2/C1=C\c1c(Cl)[nH]c2ccccc12 | 6.7 | > 20 | 13.2 | 5.8 | 9.4 | > 20 | 16 | Activity (HCT-116 [20]): >=60%; IC50 (Aurora kinase B): 15.6 µM; IC50 (Aurora kinase A): > 20 µM
CCn1cnc2c(Nc3cccc(Cl)c3)nc(N[C@@H]3CCCC[C@@H]3N)nc21 | 0.147 | 3 | 0.046 | 0.026 | 0.026 | 1.4 | 0.279 | Activity (HCT-116 [21]): <=30%
CNC(=O)c1nn(C)c2c1C(C)(C)Cc1cnc(Nc3ccc(N4CCN(C)CC4)cc3)nc1-2 [MILCICLIB] | 1.2 | – | 0.109 | – | 0.59 | – | – | Activity (HCT-116 [6]): 30 - 60%
COc1ccc(CNc2nc(N(CCO)CCO)nc3c2ncn3C(C)C)cc1 | 3.7 | > 20 | – | 0.419 | – | 2.3 | 9.2 | Activity (HCT-116 [6]): <=30%
O=C1Nc2cc(Br)ccc2/C1=C1/Nc2ccccc2/C1=N\O [6BIO] | – | – | – | – | – | 0.45 | 3.5 | Activity (HCT-116 [22]): <=30%
CC(=O)c1cnc2oc3ccc(O)cc3c2c1-c1ccccc1 | > 20 | > 20 | > 20 | 17.5 | > 20 | > 20 | > 20 | Activity (HCT-116 [1]): inactive
Nc1cc(Nc2ccc(S(N)(=O)=O)cc2)ncn1 | 5.3 | > 20 | 0.946 | 4.4 | 1.9 | > 20 | > 20 | Activity [15]: inactive
CCCOc1cnc(CN/C=C2\C(=O)NC(=O)c3ccc(I)cc32)cc1O | 0.29 | 0.038 | 0.071 | 1.2 | 0.501 | 1 | > 20 | inhibition [23]: Active; Activity (HCT-116 [24]): <=30%; inhibition [25]: Active
COc1ccc2c(c1)/C(=C/c1cnc[nH]1)C(=O)N2 [SU-9516] | – | – | – | – | – | – | – | Activity (HCT-116 [26]): Active; Activity (HCT-116 [6]): 30 - 60%; Activity (HCT-116 [27]): Active
COc1ccc(OC)c2c(=S)c3ccccc3[nH]c12 | > 20 | > 20 | > 20 | > 20 | > 20 | > 20 | > 20 | Activity (HCT-116 [28]): Active
CN(C)C(=O)c1cc2cnc(Nc3ccc(N4CCNCC4)cn3)nc2n1C1CCCC1 [RIBOCICLIB] | – | – | – | > 20 | – | – | > 20 | –
O=C1NC(=O)c2c1c1c3ccccc3[nH]c1c1[nH]c3cc(Br)ccc3c21 | 1.5 | 0.091 | 0.185 | 0.154 | 0.229 | 4 | > 20 | Activity (HCT-116 [29]): Active; Activity (HCT-116 [30]): <=30%
O=C1NC(=O)c2c1c1c3ccccc3[nH]c1c1[nH]c3ccccc3c21 [STAUROSPORINE AGLYCON] | 0.964 | 0.199 | 0.135 | 0.936 | – | > 20 | > 20 | Activity (HCT-116 [31]): >=60%; Activity (HCT-116 [32]): Active
CCNc1cc(N[C@H]2CC[C@H](O)CC2)nc(Nc2ccc3c(ccn3Cc3ccccc3)c2)n1 | – | – | – | > 10 | – | > 10 | > 10 | Activity (HCT-116 [22]): 30 - 60%; Activity (HCT-116 [33]): Active
